In patent US11248006B2, “Macrocyclic derivative of pyrazol[3,4-d]pyrimidin-3-one, pharmaceutical composition and use thereof” (SHANGHAI DE NOVO PHARMATECH CO., LTD., priority 2017, dated 2022):

Assays:
Wee1 [1] = target: T1, Wee1 (Homo sapiens (Human), UniProt P30291); assay: Wee1 enzyme catalysis assay (ATP-Glo Max kinase luminescence detection kit); assay type: biochemical; settings: Wee1 enzymatic activity, 10 μM ATP, Poly (Lys, Tyr) substrate, 30° C. for 50 minutes
Experimental: In the present disclosure, Wee1 enzyme catalysis assay was carried out using the ATP-Glo Max kinase luminescence detection kit (Promega). Kinase activity was assessed by quantitative detection of the amount of ATP retained in the solution following the kinase reaction. The luminescent signal in the assay is proportional to the amount of ATP and inversely proportional to the kinase activity. The concentration of the compound in the assay ranged from 0.5 nM to 30 μM. The compound was dissolved in 10% DMSO, and 5 μL of the solution was added to 50 μL of the reaction, and the concentration of DMSO in the final reaction was 1%. The reaction was carried out at 30° C. for 50 minutes. 40 mM trishydroxymetyl aminomethane, pH 7.4, 10 mM MgCl2, 0.1 mg/ml BSA, 2 mM DTT, 0.1 mg/ml Poly (Lys, Tyr) substrate, 10 μM ATP and Wee1 were contained in the reaction mixture. After the enzymatic reaction, 50 μL of ATP-Glo Max kinase luminescence detection assay solution (Promega) was added and incubated for 15 minutes at room temperature. The luminescent signal was measured using a microplate reader. In some assays, a known Wee1 inhibitor was added as a positive control. Luminance data was analyzed using Graphpad software. The difference between the luminescence intensity in the absence of Wee1 and the luminescence intensity in the presence of Wee1 was defined as 100% activity (Lut−Luc). Using the luminescence intensity signal (Lu) in the presence of the compound, the % activity was calculated as follows: % Activity={(Lut−Lu)/(Lut−Luc)}×100%, wherein, Lu=luminous intensity of the compound Non-linear regression analysis was employed to plot the dose-effect curve of % activity value and the corresponding concentrations for the series of compounds. The equation is Y=B+(TB)/1+10((Log EC50−X)×Hill Slope), Y=% activity, B=minimum activity percentage, T=maximum activity percentage, X=logarithm of compound and Hill slope=slope factor or Hill coefficient. The IC50 value was determined by the concentration of a compound that is required to obtain 50% of the maximum effect.

Wee1 [2] = target: T1, Wee1; assay: Cell activity of Wee1 by p-CDK1Y15 ELISA assay in WiDr cells; assay type: cell-based; settings: amount of p-CDK1Y15, human colon adenocarcinoma cell line WiDr, 24 hours incubation
Experimental: In the present disclosure, cellular assays were used to assess the biological activity of the compound. This assay was conducted using the human colon adenocarcinoma cell line WiDr. The activity of a specific Wee1 inhibitor was evaluated using p-CDK1Y15 ELISA assay method. The detailed assay method is described as follows:
WiDr cells were cultured in Dulbecco's Modified Eagle's medium containing 10% FBS at 37° C. and 5% CO2. Compound concentrations ranged from 0.5 nM to 30 μM. The compound was diluted, added to a 24-well plate and incubated with the cells for 24 hours. DMSO was used as a negative control. A known Wee1 inhibitor was added as a positive control in some assays. According to the instruction of the manufacturer, in the p-CDK1Y15 assay, cells were lysed and tested by a colorimetric ELISA kit to determine the amount of p-CDK1Y15. The optical density was measured using a spectrophotometer. The OD data was analyzed using Graphpad software to obtain a fitted curve of IC50 values against the compounds.

[3] = test system: Human osteosarcoma cell line MG63; assay: Cell proliferation assay (CCK-8 cell viability); assay type: cell-based; settings: CCK-8, 72 hours incubation
Experimental: In the present disclosure, cell assays were used to assess the biological activity of the compound. Human osteosarcoma cell line MG63 (ATCC CRL-1427) was cultured in a 96-well plate of Dulbecco's Modified Eagle's medium, supplemented with 10% fetal bovine serum and 1% (v/v) L-glutamine, and the cultivation environment was 37° C. and 5% CO2. Compound concentrations ranged from 4.5 nM to 30 μM. The Wee1 inhibitor stock solution was dissolved in DMSO, added to the medium with an indicated concentration and incubated for 72 hours. Negative control cells were only treated with vehicle. In some assays, a known Wee1 inhibitor was added as a positive control. Cell viability was measured using a Cell Counting Kit-8 (CCK-8, Sigma-Aldrich) under the instruction of the product specification. The data was analyzed using Graphpad software to obtain a fitted curve of IC50 values against the compounds.

T1 sequence (P30291 whole entry): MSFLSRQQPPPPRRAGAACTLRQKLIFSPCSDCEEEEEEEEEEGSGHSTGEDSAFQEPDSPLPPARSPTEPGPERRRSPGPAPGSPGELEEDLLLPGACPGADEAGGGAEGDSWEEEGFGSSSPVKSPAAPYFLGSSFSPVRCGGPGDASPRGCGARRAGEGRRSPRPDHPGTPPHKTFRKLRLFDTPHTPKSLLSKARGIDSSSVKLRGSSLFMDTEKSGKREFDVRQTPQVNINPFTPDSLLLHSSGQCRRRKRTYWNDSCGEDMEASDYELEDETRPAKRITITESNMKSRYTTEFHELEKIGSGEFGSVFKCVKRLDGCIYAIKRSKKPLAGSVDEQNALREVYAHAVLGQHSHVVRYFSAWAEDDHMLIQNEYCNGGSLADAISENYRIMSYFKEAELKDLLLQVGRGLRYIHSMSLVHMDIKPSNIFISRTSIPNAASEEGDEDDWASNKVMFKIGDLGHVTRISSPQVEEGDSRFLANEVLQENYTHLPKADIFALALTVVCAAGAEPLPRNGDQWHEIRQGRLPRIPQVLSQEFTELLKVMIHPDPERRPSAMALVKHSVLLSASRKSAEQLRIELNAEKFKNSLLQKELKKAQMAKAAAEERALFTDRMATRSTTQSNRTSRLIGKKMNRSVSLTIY

Row | Structure (SMILES) | IC50 (Wee1 [1]) [µM] | IC50 (Wee1 [2]) [µM] | IC50 ([3]; Homo sapiens, MG-63, 72 h) [µM] | IC50 [3] [µM]
1 | C=CCn1c(=O)c2cnc(SC)nc2n1-c1ccc2c(n1)N(CCCC#CCOC1CCCCO1)C(=O)CO2 (centres unmarked) [Compound 10-1-1] | 0.0099 | – | – | 0.49
2 | CN1CCC(c2c[nH]c3cc(Nc4ncc5c(=O)n6n(c5n4)-c4ccc5c(n4)N(CCC/C=C\C6)C(=O)CO5)ccc23)CC1 [Compound 3-7-13] | – | 0.114 | 0.15 | –
3 | CN1CCN(c2ccc(Nc3ncc4c(=O)n5n(c4n3)-c3ccc4c(n3)N(CCC/C=C\C5)C(=O)CO4)cc2)CC1 [Compound 3-3-7] | 0.013 | 0.25 | 0.571 | –
4 | CN1Cc2cc(Nc3ncc4c(=O)n5n(c4n3)-c3ccc4c(n3)N(CCC/C=C\C5)C(=O)CO4)ccc2C2(CC2)C1 [Compound 3-2-2] | 0.011 | 0.139 | – | 0.261
5 | O=C1COc2ccc3nc2N1CCC/C=C\Cn1c(=O)c2cnc(Nc4ccc5c(ccn5C5CCN(CCO)CC5)c4)nc2n1-3 [Compound 3-7-10] | 0.0085 | – | 0.0564 | –
6 | CC(C)(C)OC(=O)N1CCC(n2ccc3cc(Nc4ncc5c(=O)n6n(c5n4)-c4ccc5c(n4)N(CCC/C=C\C6)C(=O)CO5)ccc32)CC1 [Compound 3-7-3] | 0.0095 | 0.0806 | – | 0.222
7 | CN1CCn2c(cc3cc(Nc4ncc5c(=O)n6n(c5n4)-c4ccc5c(n4)N(CCC/C=C\C6)C(=O)CO5)ccc32)C1 [Compound 3-7-8] | 0.0123 | – | 0.654 | –
8 | CN1CCN(c2cc(Nc3ncc4c(=O)n5n(c4n3)-c3ccc4c(n3)N(CCC/C=C\C5)C(=O)CO4)cc3c2ccn3C)CC1 [Compound 3-7-16] | – | 0.0314 | 0.0991 | –
9 | COc1cc(Nc2ncc3c(=O)n4n(c3n2)-c2ccc3c(n2)N(CCC/C=C\C4)C(=O)CO3)cc(N2CCN(C)CC2)c1 [Compound 3-3-13] | – | 0.0688 | 0.082 | –
10 | CN1CCC(n2ccc3cc(Nc4ncc5c(=O)n6n(c5n4)-c4ccc5c(n4)N(CCC/C=C\C6)C(=O)CO5)ccc32)C1 (centres unmarked) [Compound 3-7-6] | 0.0096 | – | 0.554 | –

Further compounds by falling IC50 (Wee1 [1]), results first:

Row | IC50 (Wee1 [1]) [µM] | IC50 (Wee1 [2]) [µM] | IC50 ([3]; Homo sapiens, MG-63, 72 h) [µM] | IC50 [3] [µM] | Structure (SMILES)
11 | 0.0076 | 0.326 | – | – | CN1Cc2cc(Nc3ncc4c(=O)n5n(c4n3)-c3ccc4c(n3)N(CC/C=C\C5)C(=O)CO4)ccc2C2(CC2)C1 [Compound 3-2-3]
12 | 0.0066 | 0.0514 | – | 0.0443 | CC(C)N1CCC(n2ccc3cc(Nc4ncc5c(=O)n6n(c5n4)-c4ccc5c(n4)N(CCC/C=C\C6)C(=O)CO5)ccc32)CC1 [Compound 3-7-7]
13 | 0.0055 | – | – | 0.295 | CN1CCN(c2ccc(Nc3ncc4c(=O)n5n(c4n3)-c3ccc4c(n3)N(CCC/C=C\C5)C(=O)CO4)cc2CO)CC1 [Compound 3-3-1]
14 | 0.0054 | – | 0.593 | – | CN1Cc2cc(Nc3ncc4c(=O)n5n(c4n3)-c3cccc(n3)OCC/C=C\C5)ccc2C2(CC2)C1 [Compound 1-2-1]
15 | 0.0049 | 0.336 | – | 1.15 | C=CCCCCN1C(=O)COc2ccc(-n3c4nc(SC)ncc4c(=O)n3CC=C)nc21 [Compound 3-1-1]
16 | 0.0044 | – | 0.323 | – | CN1Cc2cc(Nc3ncc4c(=O)n5n(c4n3)-c3ccc4c(n3)N(CCO4)C(=O)CC/C=C\C5)ccc2C2(CC2)C1 [Compound 8-1-2]
17 | 0.0039 | 0.0388 | 0.0604 | – | CN1CCC(n2ccc3cc(Nc4ncc5c(=O)n6n(c5n4)-c4ccc5c(n4)N(CCC/C=C\C6)C(=O)CO5)ccc32)CC1 [Compound 3-7-5]
18 | 0.0037 | – | 0.439 | – | CC(=O)N1CCC/C=C\Cn2c(=O)c3cnc(Nc4ccc5c(c4)CN(C)CC54CC4)nc3n2-c2cccc1n2 [Compound 2-2-1]
19 | 0.0033 | 0.114 | 0.567 | – | COc1cc(Nc2ncc3c(=O)n4n(c3n2)-c2ccc3c(n2)N(CCC/C=C\C4)C(=O)CO3)ccc1N1CCN(C)CC1 [Compound 3-3-2]
20 | 0.0024 | – | 0.232 | – | CN1Cc2cc(Nc3ncc4c(=O)n5n(c4n3)-c3ccc4c(n3)N(CCC/C=C\C5)C(=O)CO4)ccc2C(C)(C)C1 [Compound 3-5-1]
